Test [1] relates to Mycoplasma pneumoniae. As to conditions: Mycoplasma pneumoniae ATCC 29342; CLSI M43-A acceptable QC range; cited from earlier work.
For test [2], the system named is Ureaplasma species. To be noted: Ureaplasma urealyticum ATCC 33175; CLSI M43-A acceptable QC range; cited from earlier work.
Test [3] deals with Yersinia pestis. Briefly: microbe, parasite or virus in culture. To be noted: Yersinia pestis. Type of test: cell-based.
Test [4] concerns Mycoplasma pneumoniae. Briefly: Broth microdilution MIC assay (CLSI M43-A), M. pneumoniae. Type of test: cell-based. As to conditions: for MIC: read-out: MIC.
In test [5] the test system is Brucella abortus. Briefly: microbe, parasite or virus in culture. In kind it is cell-based.
The test system of test [6] is Mycoplasma hominis. The experiment in a line: microbe, parasite or virus in culture. Type of test: cell-based.
Test [7] concerns Francisella tularensis. Briefly: microbe, parasite or virus in culture. Type of test: cell-based. To be noted: Francisella tularensis.
Test [8] deals with Burkholderia mallei. The experiment in a line: microbe, parasite or virus in culture. In kind it is cell-based.
Test [9] concerns Brucella suis. The experiment in a line: microbe, parasite or virus in culture. Type of test: cell-based.
For test [10], the system named is Bacillus anthracis. Briefly: microbe, parasite or virus in culture. In kind it is cell-based. To be noted: Bacillus anthracis.
The test system of test [11] is Ureaplasma species. The experiment in a line: microbe, parasite or virus in culture. Type of test: cell-based, Ureaplasma urealyticum, Ureaplasma parvum.
Test [12] has as its system Mycoplasma genitalium. The experiment in a line: microbe, parasite or virus in culture. Type of test: cell-based. To be noted: for MIC: Mycoplasmoides genitalium.

SMILES strings stand for the structures. Converted amounts (≈) assume the structure as drawn. “And” between values parts separate entries of the source, which are not always exact repeats. Equal values may be shown once. Read-outs that look alike come from different tables or passages of the source.

Regarding `CC[C@H]1OC(=O)[C@H](C)[C@@H](O[C@H]2C[C@@](C)(OC)[C@@H](O)[C@H](C)O2)[C@H](C)[C@@H](O[C@@H]2O[C@H](C)C[C@H](N(C)C)[C@H]2O)[C@](C)(O)C[C@@H](C)C(=O)[C@H](C)[C@@H](O)[C@]1(C)O` [Erythromycin], the “MIC Limits for Quality Control Strain” value was 4 to 63 ng/mL in test [1] and 1 to 8 µg/mL in test [2].

For the compound `C[C@H]1COc2c(N3CCN(C)CC3)c(F)cc3c(=O)c(C(=O)O)cn1c23` [Levofloxacin], the MIC is not above 0.25 µg/mL in test [3]; 1 µg/mL (≈ 2.77 µM) in [4] (M. pneumoniae M-129 QC Strain ATCC 29342-B7); 1 µg/mL (≈ 2.77 µM) in test [4] (M. pneumoniae isolate 51494); 0.5 µg/mL (≈ 1.38 µM) in test [4] (M. pneumoniae isolate 53706); 1 µg/mL (≈ 2.77 µM) in test [4] (M. pneumoniae isolate 53938); 0.5 µg/mL (≈ 1.38 µM) in test [4] (M. pneumoniae isolate 54484, macrolide-resistant). Moreover, the MIC in test [4] (M. pneumoniae isolate 54506, macrolide-resistant) amounted to 0.5 µg/mL (≈ 1.38 µM); in test [4] (M. pneumoniae isolate 55246), 1 µg/mL (≈ 2.77 µM); in test [4] (M. pneumoniae isolate 55612), 0.5 µg/mL (≈ 1.38 µM); in test [4] (M. pneumoniae isolate 57807), 0.5 µg/mL (≈ 1.38 µM); in [4] (M. pneumoniae isolate 58188), 0.5 µg/mL (≈ 1.38 µM); in test [4] (M. pneumoniae isolate 58772) it was 1 µg/mL (≈ 2.77 µM). Further, the MIC in test [4] (M. pneumoniae isolate 59597) is 0.5 µg/mL (≈ 1.38 µM); in test [4] (M. pneumoniae isolate 59598) it was 1 µg/mL (≈ 2.77 µM); in [5], 0.25 µg/mL (≈ 0.692 µM); in test [5] (Brucella abortus), 0.5 µg/mL (≈ 1.38 µM); in test [7], not above 0.125 µg/mL; in test [8], 0.5 µg/mL and 0.25 µg/mL. Also, the MIC in test [9] was 0.25 µg/mL (≈ 0.692 µM); in test [9] (Brucella suis), 0.5 µg/mL (≈ 1.38 µM); in test [10] it was not above 0.25 µg/mL; in test [11] (Ureaplasma, ATCC33175), 1 µg/mL (≈ 2.77 µM); in test [12], 0.5 µg/mL (≈ 1.38 µM); in test [12] (ATCC33530), 2 µg/mL (≈ 5.53 µM). The MIC in test [12] (ATCC49895) and in test [12] (ATCC49899) was 2 µg/mL (≈ 5.53 µM) each time. Also, the MIC50 in test [4] (M. pneumoniae isolates, n = 12) amounted to 0.5 µg/mL (≈ 1.38 µM); in test [6] (Metamycoplasma hominis) it was 0.125 µg/mL (≈ 0.346 µM); in test [11] (Ureaplasma) it was 1 µg/mL (≈ 2.77 µM). For the same compound, the MIC90 in [4] (M. pneumoniae isolates, n = 12) was found to be 1 µg/mL (≈ 2.77 µM); in test [6] (Metamycoplasma hominis), 0.25 µg/mL (≈ 0.692 µM); in test [11] (Ureaplasma), 8 µg/mL (≈ 22.1 µM). The “MIC Range” value in test [4] (M. pneumoniae isolates, n = 12) fell in the range of 0.5 to 1 µg/mL; in test [6], 0.063 to 0.25 µg/mL; in test [11] it was 0.25 to 32 µg/mL; in [12], 0.5 to 2 µg/mL.

These data come from US10238661B2, “Fused, spirocyclic heteroaromatic compounds for the treatment of bacterial infections” (priority 2014, dated 2019).
